Reference: patent US12178838B2, “Synthetic neuromodulatory peptides” (Lactocore, Inc., priority 2019, dated 2024)

Assays:
Assay type in all cases: in vivo
[1] = tested on: Wistar rats after chronic unpredictable mild stress; test: CUMS model: Social Interaction test; conditions: FQSE 0.5 mg/kg i.n.; diazepam 0.5 mg/kg i.p.; 4 injections; vs control non-stressed rats
Protocol: (§1) During stress, the animals were placed in individual cells and exposed to stressful conditions each day for 26 days. Two stressors were used daily, applied in the following order: • Day 1. 10 am-6 pm, rats were placed in a cold room for an hour. From 6 PM to 10 am the lights were turned on and off every 2 hours. • Day 2. 10 am-6 pm, cage tilted to 45°. From 6 PM to 10 am water deprivation. • Day 3. 10 am-6 pm, stroboscopic light. From 6 PM to 10 am the light was left on overnight. • Day 4. 10 am-6 pm, wet bedding. From 6 PM to 10 am the animals were put in a small mouse cage. • Day 5. 10 am-6 pm, no bedding. From 6 PM to 10 am the lights were turned on and off every 2 hours. • Day 6. 10 am-6 pm, a new rat was placed in the cage (6-month-old). From 6 PM to 10 am the light was left on overnight. • Day 7. 10 am-6 pm, white noise. From 6 PM to 10 am a stroboscopic light was turned on at night. • Day 8-26. Repetition of previously used stressors in the specified sequence.
Experimental substances were administered daily starting from the 58-59 day of the experiment. […]
To assess the social activity and depressive state of the animals, a test that evaluates a social interaction of rodents was used. […] Within 10 minutes the duration and number of social contacts with the juvenile male and number of threatening and aggressive contacts were recorded. […]

[2] = tested on: Wistar rats after chronic unpredictable mild stress; test: CUMS model: Porsolt forced swimming test; conditions: FQSE 0.05 mg/kg i.n.; Diazepam 0.5 mg/kg i.p.; 18 injections
Protocol: as §1, with “sequence. […]” for “sequence.”
The forced swim test is a rodent behavioral test used for the evaluation of antidepressant drugs, antidepressant efficacy of new compounds, and experimental manipulations that are aimed at rendering or preventing depressive-like states. […] In the last 6 minutes, the duration of active (vigorous movement of all limbs) and passive (weak strokes of the hind limbs) swimming and immobility duration were recorded. […]

[3] = tested on: zebrafish (Danio rerio); test: Open Field test in zebrafish; conditions: ip
Protocol: (§2) The tested substances were injected into the zebrafish intraperitoneally (ip) using an insulin syringe (0.5 ml, 30 g) 10 minutes before the test. The saline solution (0.9% NaCl) was used as a solvent. Anesthesia and immobilization of the animals were achieved by placing them in water at a temperature of 10° C. Control group fish received intraperitoneal injections of an equivalent volume of solvent, also after going through a pre-cooling procedure.
(§3) A base, back, and side walls of the aquarium were made of matte black plastic; the front panel (shorter wall) was made of transparent Plexiglas. The setup for the Light/Dark preference test consisted of three main parts: a launch compartment, a light compartment made of white plastic, and a dark compartment made of black plastic. The bright lighting in these tests was provided by a lamp on a stand (LED lamp PL, 11 W, light flux≈600 Lm, about 500 Lx directly above the water surface), which was attached to the upper part of the aquarium.
The open field test was performed as described in Maximino et al., 2013. A video recording (background shooting) was started 20-30 seconds before the zebrafish were placed in the test aquarium. The experimental zebrafish was placed in an open field (“OF”) aquarium using a net. The recording was being conducted for five minutes. The test was carried out using EthoVision XT software package (Noldus). The software registered the distance covered by the animal, its speed, the number of visits to the three conventional zones of the aquarium: “bottom,” “center,” and […] (lower, middle, and upper thirds of the aquarium, respectively), the time spent in these zones, and the latency of a visit to the middle and to the surface of the aquarium.

[4] = tested on: zebrafish (Danio rerio); test: Shoaling behavior test in zebrafish; conditions: ip, DKTE 1 mg/kg, vs control
Protocol: as §2
A Plexiglas container with a removable partition (shown in FIG. 4) was used as a setup for investigating the shoaling behavior of zebrafish. A shoal of 5 adult Danio rerio specimens was placed into in the small compartment; and the test fish was placed in a large compartment. Diffused lighting in this installation was provided by the usual lighting of the room (about 200 Lx).
The shoaling behavior test was performed as described in Parker et al., 2014. (Parker et al. (2014) The utility of zebrafish to study the mechanisms by which ethanol affects social behavior and anxiety during early brain development. Prog. Neuro-Psychopharmacology Biol. Psychiatry. 94-100). The video recording began simultaneously with placing the zebrafish in the set-up and recorded for 5 minutes. The videos were processed using RealTimer (OpenScience Ltd., Moskow, Russia). During the processing of the records, the residence time and the number of visits to the three conventional zones of the aquarium wall (near the “shoal” in the middle of the aquarium, and near the opposite side; all three were equal in size) were recorded.

[5] = tested on: zebrafish (Danio rerio); test: Light/dark box test in zebrafish; conditions: ip
Protocol: as §2, §3
The light/dark box (LDB) test was performed as described in Maximino et al., 2011. The zebrafish was placed in a light compartment of an LDB using a net, the camera was switched on simultaneously, and the behavior of the zebrafish was recorded for 5 minutes. The video was processed using RealTimer (OpenScience). During the processing of records, the residence time and the number of visits to the light and dark compartments of the test setup were recorded, as well as the latent period of visiting both compartments.

## CN1C(=O)CN=C(c2ccccc2)c2cc(Cl)ccc21 [Diazepam]
[1]
  duration of social contacts: significant decrease
[2]
  immobilization time: did not differ
[3]; diazepam 10 mg/kg
  distance covered during the open field test: tended to cover a smaller distance
[3]; diazepam 1.25, 5, 10, fluvoxamine 5, 10, ACZ-10 0.6, BCM-7 5, FQSE 1 and 10, DKTE 1, WDQV 10 mg/kg
  average distance covered / track length (locomotor activity): did not demonstrate any significant effects
[3]; diazepam 1.25 and 5 mg/kg
  behavior in the open field test: No effects
[4]; diazepam 1.25 mg/kg, ACZ-10 0.6 mg/kg, BCM-7 5 mg/kg
  time spent in the compartment near the shoal: statistically significant decrease
[4]; diazepam 5 mg/kg, FQSE 10 mg/kg
  time spent outside the shoaling compartment (near the wall opposite to the shoal): increase
[5]; diazepam 5 mg/kg, FQSE 10 mg/kg, WDQV 10 mg/kg
  time spent in the light compartment: increased dramatically
[5]; diazepam 10 mg/kg
  number of transitions between the light and dark compartments: increase
  time of the first exit (latent period) to the light chamber: decrease
